Test [1] has as its target T1, human M2 receptor (Homo sapiens, UniProt P08172).
T1 sequence (P08172 1-466): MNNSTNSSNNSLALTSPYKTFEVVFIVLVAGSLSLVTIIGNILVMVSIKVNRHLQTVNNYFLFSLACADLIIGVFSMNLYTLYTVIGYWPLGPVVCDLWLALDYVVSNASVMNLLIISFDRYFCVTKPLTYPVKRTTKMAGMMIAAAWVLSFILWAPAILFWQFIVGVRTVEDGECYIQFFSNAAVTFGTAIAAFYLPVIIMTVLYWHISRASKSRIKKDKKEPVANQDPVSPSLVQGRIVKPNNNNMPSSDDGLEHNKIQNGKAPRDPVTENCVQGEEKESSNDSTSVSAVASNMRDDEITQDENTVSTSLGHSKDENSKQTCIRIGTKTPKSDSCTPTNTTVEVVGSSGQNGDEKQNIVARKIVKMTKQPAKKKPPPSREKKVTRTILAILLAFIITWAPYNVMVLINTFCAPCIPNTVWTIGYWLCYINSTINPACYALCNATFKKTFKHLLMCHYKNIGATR
Format: cell-based. The settings on record: α >1 = positive cooperativity.

Test [2] concerns the target T1, human M2 receptor.
The mark [3] stands for this setting: shift in the acetylcholine dose-response curve (Allosteric EC50 shift, GraphPad PRISM).
[4] abbreviates: Receptor activity EC50, M2-GIRK1/4 activation test, acetylcholine at EC20, allosteric potency, in some cases mean values from two or more determinations.
Setting [5] is: shift of acetylcholine dose-response curve (Allosteric EC50 shift).
[6] abbreviates: Receptor activity EC50, allosteric potency at EC20 acetylcholine, M2-GIRK1/4 reporter cells, in some cases mean of two or more determinations.
The mark [7] stands for this setting: read-out: Efficiency, boosting of the acetylcholine effect at EC20 acetylcholine concentration, M2-GIRK1/4 reporter cells.

Like-named read-outs stand apart in the source and are kept apart here.

What is called EC50 is the concentration giving half of the maximal effect. Lower therefore signals higher potency in that assay.

Take `CC[C@H](NC(=O)c1cn(-c2ccc(F)cc2F)c2nc(N3C[C@H](C(=O)OC)OC3=O)ccc2c1=O)C(F)(F)F` [Example 259, Methyl (5R)-3-[8-(2,4-difluorophenyl)-5-oxo-6-{[(2S)-1,1,1-trifluorobutan-2-yl]carbamoyl}-5,8-dihydro-1,8-naphthyridin-2-yl]-2-oxo-1,3-oxazolidine-5-carboxylate]: the “Cooperativity (alpha factor)” value on human M2 receptor [1] (setting [3]) is on record as 14. The EC50 on human M2 receptor [2] (setting [4]) was 560 nM.
As to `CC[C@@H](NC(=O)c1cn(-c2ccc(F)cc2F)c2nc(N3C[C@@H]4C(COC)[C@@H]4C3)ccc2c1=O)C(F)(F)F` (stereo partly drawn) [Example 190, 1-(2,4-Difluorophenyl)-7-[(1R,5S)-6-(methoxymethyl)-3-azabicyclo[3.1.0]hex-3-yl]-4-oxo-N-[(2R)-1,1,1-trifluorobutan-2-yl]-1,4-dihydro-1,8-naphthyridine-3-carboxamide], the “Cooperativity (alpha factor)” value at human M2 receptor [1] (setting [3]) is on record as 12. For the same molecule, the EC50 at human M2 receptor [2] (setting [4]) came to 46 nM.
Take `CC[C@@H](NC(=O)c1cn(-c2ccc(F)cc2F)c2nc(N3CCC(C)(OC)C3)ccc2c1=O)C(F)(F)F` (mixture of isomers) [Example 191, 1-(2,4-Difluorophenyl)-7-[3-methoxy-3-methylpyrrolidin-1-yl]-4-oxo-N-[(2R)-1,1,1-trifluorobutan-2-yl]-1,4-dihydro-1,8-naphthyridine-3-carboxamide]: the “Cooperativity (alpha factor)” value at human M2 receptor [1] (setting [3]) turned out to be 7. At human M2 receptor [2] (setting [4]), this molecule registered an EC50 of 60 nM.
With `CC[C@@H](NC(=O)c1cn(-c2ccc(F)cc2F)c2nc(N3CC4CC4(O)C3)ccc2c1=O)C(F)(F)F` (single isomer, unassigned) [Example 315], the “Cooperativity (alpha factor)” value at human M2 receptor [1] (setting [3]) turned out to be 25. Besides, it took 38 nM to reach a half-maximal effect at human M2 receptor [2] (setting [4]) (EC50).
On the same counts, the results for `CC(COC(F)(F)F)NC(=O)c1cn(-c2ccc(F)cc2F)c2nc(N3CC[C@H](F)C3)ccc2c1=O` (mixture of isomers) [Example 227, 1-(2,4-Difluorophenyl)-7-[(3S)-3-fluoropyrrolidin-1-yl]-4-oxo-N-[1-(trifluoromethoxy)propan-2-yl]-1,4-dihydro-1,8-naphthyridine-3-carboxamide] are 14 and 73 nM.
On to `CC[C@@H](NC(=O)c1cn(-c2c(F)cc(F)cc2F)c2nc(N3CCC(O)C3=O)ccc2c1=O)C(F)(F)F` (mixture of isomers) [Example 280, 7-[3-Hydroxy-2-oxopyrrolidin-1-yl]-4-oxo-N-[(2R)-1,1,1-trifluorobutan-2-yl]-1-(2,4,6-trifluorophenyl)-1,4-dihydro-1,8-naphthyridine-3-carboxamide], for which the “Cooperativity (alpha factor)” value at human M2 receptor [1] (setting [3]) came to 24. On human M2 receptor [2] (setting [4]), this molecule registered an EC50 of 44 nM.
The corresponding values for `O=C(NC12CC(C(F)(F)F)(C1)C2)c1cn(-c2c(F)cc(F)cc2F)c2nc(N3C[C@@H](O)CC3=O)ccc2c1=O` [Example 372, 7-[(4S)-4-Hydroxy-2-oxopyrrolidin-1-yl]-4-oxo-N-[3-(trifluoromethyl)bicyclo[1.1.1]pent-1-yl]-1-(2,4,6-trifluorophenyl)-1,4-dihydro-1,8-naphthyridine-3-carboxamide] are 34 and 20 nM.
On to `CN(C)c1ccc2c(=O)c(C(=O)NC34CC5CC(CC(C5)C3)C4)cn(-c3ccc(F)cc3F)c2n1` [Example 36, 1-(2,4-Difluorophenyl)-7-(dimethylamino)-4-oxo-N-(tricyclo[3.3.1.1^3,7]dec-1-yl)-1,4-dihydro-1,8-naphthyridine-3-carboxamide], for which, on human M2 receptor [1] (setting [3]), the “Cooperativity (alpha factor)” value was found to be 16. Further, the concentration giving a half-maximal response (EC50) at human M2 receptor [2] (setting [4]) was found to be 19 nM. Besides, the Emax on human M2 receptor [2] (read-out: Efficiency) was determined as 96.1%.
As to `CC[C@@H](NC(=O)c1cn(-c2ccc(F)cc2F)c2nc(N3C[C@@H](O)[C@@H](O)C3)ccc2c1=O)C(F)(F)F` [Example 639, 1-(2,4-Difluorophenyl)-7-[(3R,4S)-3,4-dihydroxypyrrolidin-1-yl]-4-oxo-N-[(2R)-1,1,1-trifluorobutan-2-yl]-1,4-dihydro-1,8-naphthyridine-3-carboxamide], the “Cooperativity (alpha factor)” value on human M2 receptor [1] (setting [5]) worked out at 25. The same molecule gave an EC50 at human M2 receptor [2] (setting [6]) of 68 nM. Moreover, the Emax on human M2 receptor [2] (setting [7]) was found to be 96.5%.
As for `O=C(NC(c1c(F)cccc1F)C(F)(F)F)c1cn(-c2ccc(F)cc2F)c2nc(N3C[C@@H](O)CC3=O)ccc2c1=O` (mixture of isomers) [Example 244, 1-(2,4-Difluorophenyl)-N-[1-(2,6-difluorophenyl)-2,2,2-trifluoroethyl]-7-[(4S)-4-hydroxy-2-oxopyrrolidin-1-yl]-4-oxo-1,4-dihydro-1,8-naphthyridine-3-carboxamide], on human M2 receptor [1] (setting [3]), the “Cooperativity (alpha factor)” value was 58. Moreover, a half-maximal response on human M2 receptor [2] (setting [4]) (EC50) required 22 nM.
For the molecule `CN(C)c1ccc2c(=O)c(C(=O)NCc3ccccc3C(F)(F)F)cn(-c3ccc(F)cc3F)c2n1` [Example 59, 1-(2,4-Difluorophenyl)-7-(dimethylamino)-4-oxo-N-[2-(trifluoromethyl)benzyl]-1,4-dihydro-1,8-naphthyridine-3-carboxamide], at human M2 receptor [1] (setting [3]), the “Cooperativity (alpha factor)” value is listed as 11. This molecule returned an EC50 at human M2 receptor [2] (setting [4]) of 94 nM.
As for `CC(C)C[C@@H](NC(=O)c1cn(-c2c(F)cc(F)cc2F)c2nc(N3C[C@@H](O)[C@@H](O)C3)ccc2c1=O)C(F)(F)F` [Example 574, 7-[(3R,4S)-3,4-Dihydroxypyrrolidin-1-yl]-4-oxo-N-[(2R)-1,1,1-trifluoro-4-methylpentan-2-yl]-1-(2,4,6-trifluorophenyl)-1,4-dihydro-1,8-naphthyridine-3-carboxamide], at human M2 receptor [1] (setting [5]), the “Cooperativity (alpha factor)” value worked out at 36. Further, a half-maximal response at human M2 receptor [2] (setting [6]) (EC50) required 12 nM. Besides, the Emax at human M2 receptor [2] (setting [7]) came to 100%.
As to `CC(C)(C)[C@@H](NC(=O)c1cn(-c2c(F)cc(F)cc2F)c2nc(N3C[C@@H](O)CC3=O)ccc2c1=O)C(F)(F)F` [Example 357, 7-[(4S)-4-Hydroxy-2-oxopyrrolidin-1-yl]-4-oxo-N-[(2R)-1,1,1-trifluoro-3,3-dimethylbutan-2-yl]-1-(2,4,6-trifluorophenyl)-1,4-dihydro-1,8-naphthyridine-3-carboxamide], the “Cooperativity (alpha factor)” value at human M2 receptor [1] (setting [3]) worked out at 63. The EC50 at human M2 receptor [2] (setting [4]) came to 4 nM.
On to `CCC(COC(F)(F)F)NC(=O)c1cn(-c2ccc(F)cc2F)c2nc(N3C[C@@H](O)CC3=O)ccc2c1=O` (stereo partly drawn) [Example 234, 1-(2,4-Difluorophenyl)-7-[(4S)-4-hydroxy-2-oxopyrrolidin-1-yl]-4-oxo-N-[1-(trifluoromethoxy)butan-2-yl]-1,4-dihydro-1,8-naphthyridine-3-carboxamide], for which the “Cooperativity (alpha factor)” value at human M2 receptor [1] (setting [3]) turned out to be 28. At human M2 receptor [2] (setting [4]), the EC50 was determined as 75 nM.
Regarding `CC(C)CC(NC(=O)c1cn(-c2ccc(F)cc2F)c2nc(N(C)CCF)ccc2c1=O)C(F)(F)F` (racemic) [Example 107, rac-1-(2,4-Difluorophenyl)-7-[(2-fluoroethyl)(methyl)amino]-4-oxo-N-[1,1,1-trifluoro-4-methylpentan-2-yl]-1,4-dihydro-1,8-naphthyridine-3-carboxamide], the “Cooperativity (alpha factor)” value on human M2 receptor [1] (setting [3]) stood at 14. This molecule also showed an EC50 on human M2 receptor [2] (setting [4]) of 57 nM.
The corresponding values for `CC[C@@H](NC(=O)c1cn(-c2ccc(F)cc2F)c2nc(N3CCNC3=O)ccc2c1=O)C(F)(F)F` [Example 320, 1-(2,4-Difluorophenyl)-4-oxo-7-(2-oxoimidazolidin-1-yl)-N-[(2R)-1,1,1-trifluorobutan-2-yl]-1,4-dihydro-1,8-naphthyridine-3-carboxamide] are 6 and 130 nM.
`CC[C@@H](NC(=O)c1cn(-c2c(F)cc(F)cc2F)c2nc(N3CCC(O)C3=O)ccc2c1=O)C(F)(F)F` (single isomer, unassigned) [Example 281]: at human M2 receptor [1] (setting [3]), the “Cooperativity (alpha factor)” value amounted to 44. For the same molecule, the EC50 at human M2 receptor [2] (setting [4]) was 34 nM.
As for `CC[C@H](NC(=O)c1cn(-c2ccc(F)cc2F)c2nc(N3CC[C@H](F)C3)ccc2c1=O)C(F)(F)F` [Example 64, 1-(2,4-Difluorophenyl)-7-[(3S)-3-fluoropyrrolidin-1-yl]-4-oxo-N-[(2S)-1,1,1-trifluorobutan-2-yl]-1,4-dihydro-1,8-naphthyridine-3-carboxamide], the “Cooperativity (alpha factor)” value at human M2 receptor [1] (setting [3]) was 28. Moreover, a half-maximal effect on human M2 receptor [2] (setting [4]) (EC50) was put at 12 nM.
For `C[C@@H]1CN(c2ccc3c(=O)c(C(=O)N[C@@H](C4CC4)C(F)(F)F)cn(-c4c(F)cc(F)cc4F)c3n2)C(=O)N1` [Example 437, N-[(1S)-1-Cyclopropyl-2,2,2-trifluoroethyl]-7-[(4R)-4-methyl-2-oxoimidazolidin-1-yl]-4-oxo-1-(2,4,6-trifluorophenyl)-1,4-dihydro-1,8-naphthyridine-3-carboxamide], the “Cooperativity (alpha factor)” value at human M2 receptor [1] (setting [5]) was found to be 29. The EC50 on human M2 receptor [2] (setting [6]) is 9 nM. Further, at human M2 receptor [2] (setting [7]), the Emax is 98.4%.
As to `O=C(N[C@@H](C1CC1)C(F)(F)F)c1cn(-c2c(F)cc(F)cc2F)c2nc(N3CCC(CO)(CO)CC3)ccc2c1=O` [Example 489, 7-[4,4-Bis(hydroxymethyl)piperidin-1-yl]-N-[(1S)-1-cyclopropyl-2,2,2-trifluoroethyl]-4-oxo-1-(2,4,6-trifluorophenyl)-1,4-dihydro-1,8-naphlthyridine-3-carboxamide], the “Cooperativity (alpha factor)” value on human M2 receptor [1] (setting [5]) is reported as 23. Further, the EC50 on human M2 receptor [2] (setting [6]) came out at 27 nM. Also, the Emax at human M2 receptor [2] (setting [7]) amounted to 100%.

(Values after patent publication US20190367516A1 (Bayer Pharma Aktiengesellschaft, priority 2015, published 2019).)
